Numbered stars: 1 amine (or outer) side, 2 acyl side, 3 side chain; on linkers, the order of the positions; unused ones are H or OH. Square brackets hold non-standard residues; d marks the D form. Side chains are listed from the residue outwards. Peptide text beside a SMILES is read from it. * marks the point of attachment. C20 diacid = O=C(O)CCCCCCCCCCCCCCCCCCC(=O)*; C18 diacid = O=C(O)CCCCCCCCCCCCCCCCC(=O)*; αMePhe(2-F) = C[C@](N)(Cc1ccccc1F)C(=O)O; γGlu = O=C(O)[C@H](CCC(=O)[*:2])N[*:1]; αMeY = C[C@](N)(Cc1ccc(O)cc1)C(=O)O; 4Pal = N[C@@H](Cc1ccncc1)C(=O)O; αMeL = CC(C)C[C@](C)(N)C(=O)O; Orn = NCCC[C@H](N)C(=O)O; AEEA = NCCOCCOCC(=O)O; Aib = CC(C)(N)C(=O)O
Legend:
[1] = biological target: human GLP-1 receptor (GLP-1R) (Homo sapiens, UniProt P43220); test: cAMP pharmacological functional assay in presence of casein, hGLP-1R; type: cell-based; conditions: HEK293 cells expressing hGLP-1R, 0.1% Casein, geometric mean; read-out: hGLP1R cAMP Rel EC50 nM (SEM, n)
human GLP-1 receptor (GLP-1R), sequence (P43220 24-463): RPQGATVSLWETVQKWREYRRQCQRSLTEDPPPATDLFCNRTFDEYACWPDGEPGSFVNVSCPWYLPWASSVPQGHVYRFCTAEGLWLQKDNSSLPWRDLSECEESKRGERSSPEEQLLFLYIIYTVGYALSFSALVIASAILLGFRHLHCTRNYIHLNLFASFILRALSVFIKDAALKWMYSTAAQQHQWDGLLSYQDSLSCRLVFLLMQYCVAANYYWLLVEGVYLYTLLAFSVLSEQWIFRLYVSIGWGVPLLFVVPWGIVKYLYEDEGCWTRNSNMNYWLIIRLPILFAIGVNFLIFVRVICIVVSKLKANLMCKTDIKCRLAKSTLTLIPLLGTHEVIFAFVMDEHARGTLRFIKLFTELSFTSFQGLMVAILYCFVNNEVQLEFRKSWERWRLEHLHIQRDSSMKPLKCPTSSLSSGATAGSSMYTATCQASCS

[2] = biological target: T1, gastric inhibitory peptide receptor (GIPR) (Homo sapiens, UniProt P48546); test: cAMP pharmacological functional assay in presence of casein, hGIPR; type: cell-based; conditions: HEK293 cells expressing hGIPR, 0.1% Casein, geometric mean; read-out: hGIPR cAMP Rel EC50 nM (SEM, n)
T1 sequence (P48546 22-466): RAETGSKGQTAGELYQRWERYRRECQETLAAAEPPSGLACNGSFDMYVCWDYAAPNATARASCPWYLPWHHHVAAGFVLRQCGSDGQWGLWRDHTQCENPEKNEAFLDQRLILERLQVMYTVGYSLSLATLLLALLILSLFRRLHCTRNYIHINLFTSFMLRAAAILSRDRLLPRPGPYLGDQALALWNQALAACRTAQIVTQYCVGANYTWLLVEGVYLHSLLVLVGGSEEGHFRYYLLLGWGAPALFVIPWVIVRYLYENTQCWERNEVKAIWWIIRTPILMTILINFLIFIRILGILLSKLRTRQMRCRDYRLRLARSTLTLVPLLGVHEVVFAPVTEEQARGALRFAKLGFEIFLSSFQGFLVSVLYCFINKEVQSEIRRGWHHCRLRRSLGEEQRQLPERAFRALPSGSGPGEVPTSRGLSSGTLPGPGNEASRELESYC

[3] = biological target: T2, human Gcg receptor (Homo sapiens, UniProt P47871); test: [125I]-Glucagon binding (SPA), human Gcg receptor; conditions: read-out: hGLcgR Ki, nM (SEM, n)
T2 construct: expressed in transfected cells; crude membranes
T2 sequence (P47871 26-477): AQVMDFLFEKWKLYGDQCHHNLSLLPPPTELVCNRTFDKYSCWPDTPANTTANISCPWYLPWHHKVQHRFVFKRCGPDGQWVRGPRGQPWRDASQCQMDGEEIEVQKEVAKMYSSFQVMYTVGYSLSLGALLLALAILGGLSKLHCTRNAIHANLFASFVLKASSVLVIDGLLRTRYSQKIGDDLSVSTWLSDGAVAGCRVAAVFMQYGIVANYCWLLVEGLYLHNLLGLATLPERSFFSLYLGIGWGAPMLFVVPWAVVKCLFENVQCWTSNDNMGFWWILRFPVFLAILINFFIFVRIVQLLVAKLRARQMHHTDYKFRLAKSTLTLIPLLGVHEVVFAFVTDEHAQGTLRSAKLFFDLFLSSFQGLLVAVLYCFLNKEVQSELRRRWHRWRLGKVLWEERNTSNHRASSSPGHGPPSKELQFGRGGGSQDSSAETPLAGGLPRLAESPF
Outline: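 Scintillation counts are taken after membranes and WGA beads incubate and settle for 12 hours at room temperature. Buffer is 25 mM HEPES, pH 7.4, with CaCl2, MgCl2, bacitracin and Tween-20. Ki values, from four-parameter IC50 fits, are geometric means over independent days.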

[4] = biological target: T3, human GIP receptor (Homo sapiens, UniProt P48546); test: [125I]-GIP binding (SPA), human GIP receptor; conditions: read-out: hGIPR Ki, nM (SEM, n)
T3 construct: expressed in transfected cells; crude membranes
T3 sequence (P48546 22-466): T1 sequence (P48546 22-466)

[5] = biological target: human GLP-1R (Homo sapiens, UniProt P43220); test: [125I]-GLP-1 binding (SPA), human GLP-1 receptor; set-up: expressed in transfected cells; crude membranes; conditions: read-out: hGLP1R Ki, (nM) (SEM, n)
human GLP-1R, sequence (P43220 24-463): as the sequence (P43220 24-463) above
Outline: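 Membranes: hypotonic lysis (50 mM Tris HCl, pH 7.5, protease inhibitors), Potter-Elvehjem homogenization, high-speed pellet (35000×g 1 h or 25000×g 30 min, 4° C.). Buffer: 25 mM HEPES pH 7.4, 2.5 mM CaCl2, 1 mM MgCl2. Four-parameter IC50 fit; Ki as geometric mean ± SEM.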

Structure (SMILES)	EC50 [1]	EC50 [2]	Ki [3]	Ki [4]	Ki [5]
CC[C@H](C)[C@H](NC(=O)[C@H](CC(C)C)NC(=O)[C@H](Cc1ccc(O)cc1)NC(=O)[C@H](CCC(=O)O)NC(=O)[C@@H](NC(=O)[C@H](Cc1ccccc1)NC(=O)[C@H](C)NC(=O)C(C)(C)NC(=O)[C@H](CCC(N)=O)NC(=O)[C@H](C)NC(=O)[C@H](CCCCNC(=O)COCCOCCNC(=O)COCCOCCNC(=O)CC[C@H](NC(=O)CCCCCCCCCCCCCCCCCCC(=O)O)C(=O)O)NC(=O)[C@H](CCC(=O)O)NC(=O)[C@H](CC(=O)O)NC(=O)[C@H](CC(C)C)NC(=O)C(C)(C)NC(=O)[C@@H](NC(=O)[C@H](CO)NC(=O)[C@H](Cc1ccc(O)cc1)NC(=O)[C@H](CC(=O)O)NC(=O)[C@H](CO)NC(=O)[C@@H](NC(=O)[C@](C)(Cc1ccccc1F)NC(=O)[C@@H](NC(=O)CNC(=O)[C@H](CCC(=O)O)NC(=O)C(C)(C)NC(=O)[C@@H](N)Cc1ccc(O)cc1)[C@@H](C)O)[C@@H](C)O)[C@@H](C)CC)[C@@H](C)CC)C(=O)N[C@@H](CCC(=O)O)C(=O)NCC(=O)NCC(N)=O [Example 101] (H-Y[Aib]EGT[αMePhe(2-F)]TSDYSI[Aib]LDEK([AEEA-AEEA-γGlu-C20 diacid])AQ[Aib]AFIEYLIEGG-NH2)	0.0579 nM	0.0704 nM	117 nM	0.0953 nM	8.1 nM
CC[C@H](C)[C@H](NC(=O)[C@H](CC(C)C)NC(=O)[C@H](Cc1ccc(O)cc1)NC(=O)[C@H](CCC(=O)O)NC(=O)[C@@H](NC(=O)[C@H](Cc1ccccc1)NC(=O)[C@H](C)NC(=O)C(C)(C)NC(=O)[C@H](CCC(N)=O)NC(=O)[C@H](C)NC(=O)[C@H](CCCCNC(=O)COCCOCCNC(=O)COCCOCCNC(=O)CC[C@H](NC(=O)CCCCCCCCCCCCCCCCC(=O)O)C(=O)O)NC(=O)[C@H](CCC(=O)O)NC(=O)[C@H](CC(=O)O)NC(=O)[C@H](CC(C)C)NC(=O)[C@H](CC(C)C)NC(=O)[C@@H](NC(=O)[C@H](CO)NC(=O)[C@H](Cc1ccc(O)cc1)NC(=O)[C@H](CC(=O)O)NC(=O)[C@H](CO)NC(=O)[C@@H](NC(=O)[C@](C)(Cc1ccccc1F)NC(=O)[C@@H](NC(=O)CNC(=O)[C@H](CCC(=O)O)NC(=O)C(C)(C)NC(=O)[C@@H](N)Cc1ccc(O)cc1)[C@@H](C)O)[C@@H](C)O)[C@@H](C)CC)[C@@H](C)CC)C(=O)N[C@@H](CCC(=O)O)C(=O)NCC(=O)NCC(=O)N1CCC[C@H]1C(=O)N[C@@H](CO)C(=O)N[C@@H](CO)C(=O)NCC(N)=O [Example 311] (H-Y[Aib]EGT[αMePhe(2-F)]TSDYSILLDEK([AEEA-AEEA-γGlu-C18 diacid])AQ[Aib]AFIEYLIEGGPSSG-NH2)	0.0393 nM	0.0334 nM	115 nM	0.0497 nM	11.5 nM
CC[C@H](C)[C@H](NC(=O)[C@H](CCCCN)NC(=O)[C@H](CC(=O)O)NC(=O)[C@H](CC(C)C)NC(=O)[C@H](CC(C)C)NC(=O)[C@@H](NC(=O)[C@H](CCCCNC(=O)COCCOCCNC(=O)COCCOCCNC(=O)CC[C@H](NC(=O)CCCCCCCCCCCCCCCCCCC(=O)O)C(=O)O)NC(=O)[C@H](Cc1ccc(O)cc1)NC(=O)[C@H](CC(=O)O)NC(=O)[C@H](CO)NC(=O)[C@@H](NC(=O)[C@H](Cc1ccccc1)NC(=O)[C@@H](NC(=O)CNC(=O)[C@H](CCC(=O)O)NC(=O)C(C)(C)NC(=O)[C@@H](N)Cc1ccc(O)cc1)[C@@H](C)O)[C@@H](C)O)[C@@H](C)CC)C(=O)N[C@@H](C)C(=O)N[C@@H](CCC(N)=O)C(=O)NC(C)(C)C(=O)N[C@@H](C)C(=O)N[C@@H](Cc1ccccc1)C(=O)N[C@H](C(=O)N[C@@H](CCC(=O)O)C(=O)N[C@@H](Cc1ccc(O)cc1)C(=O)N[C@@H](CC(C)C)C(=O)N[C@H](C(=O)N[C@@H](CCC(=O)O)C(=O)NCC(=O)NCC(=O)N1CCC[C@H]1C(=O)N[C@@H](CO)C(=O)N[C@@H](CO)C(=O)NCC(=O)N[C@@H](C)C(=O)N1CCC[C@H]1C(=O)N1CCC[C@H]1C(=O)N1CCC[C@H]1C(=O)N[C@@H](CO)C(N)=O)[C@@H](C)CC)[C@@H](C)CC [Example 24] (H-Y[Aib]EGTFTSDYK([AEEA-AEEA-γGlu-C20 diacid])ILLDKIAQ[Aib]AFIEYLIEGGPSSGAPPPS-NH2)	13 nM	0.762 nM	49.8 nM	0.232 nM	5.04 nM
CC[C@H](C)[C@H](NC(=O)[C@H](CC(C)C)NC(=O)[C@](C)(Cc1ccc(O)cc1)NC(=O)[C@@H](CCC(=O)O)NC(=O)[C@@H](NC(=O)[C@H](Cc1ccccc1)NC(=O)[C@@H](NC(=O)C(C)(C)NC(=O)[C@H](CCC(N)=O)NC(=O)[C@H](C)NC(=O)[C@H](CCCCNC(=O)COCCOCCNC(=O)COCCOCCNC(=O)CC[C@H](NC(=O)CCCCCCCCCCCCCCCCC(=O)O)C(=O)O)NC(=O)[C@H](CCCN)NC(=O)[C@H](CC(=O)O)NC(=O)[C@H](CC(C)C)NC(=O)[C@](C)(CC(C)C)NC(=O)[C@@H](NC(=O)[C@H](CO)NC(=O)[C@H](Cc1ccncc1)NC(=O)[C@H](CC(=O)O)NC(=O)[C@H](CO)NC(=O)[C@@H](NC(=O)[C@](C)(Cc1ccccc1F)NC(=O)[C@@H](NC(=O)CNC(=O)[C@H](CCC(=O)O)NC(=O)C(C)(C)NC(=O)[C@@H](N)Cc1ccc(O)cc1)[C@@H](C)O)[C@@H](C)O)[C@@H](C)CC)[C@@H](C)O)[C@@H](C)CC)C(=O)N[C@@H](CCC(=O)O)C(=O)NCC(=O)NCC(=O)N1CCC[C@H]1C(=O)N[C@@H](CO)C(=O)N[C@@H](CO)C(=O)NCC(=O)N[C@@H](C)C(=O)N1CCC[C@H]1C(=O)N1CCC[C@H]1C(=O)N1CCC[C@H]1C(=O)N[C@@H](CO)C(N)=O [Example 239] (H-Y[Aib]EGT[αMePhe(2-F)]TSD[4Pal]SI[αMeL]LD[Orn]K([AEEA-AEEA-γGlu-C18 diacid])AQ[Aib]TFI[dE][αMeY]LIEGGPSSGAPPPS-NH2; N-terminus assumed)	0.0376 nM	0.0353 nM	596 nM	0.101 nM	2.71 nM
CC[C@H](C)[C@H](NC(=O)[C@H](CC(C)C)NC(=O)[C@H](Cc1ccc(O)cc1)NC(=O)[C@H](CCC(=O)O)NC(=O)[C@@H](NC(=O)[C@H](Cc1ccccc1)NC(=O)[C@H](C)NC(=O)[C@H](Cc1c[nH]cn1)NC(=O)[C@H](CCC(N)=O)NC(=O)[C@H](C)NC(=O)[C@H](CCCCNC(=O)COCCOCCNC(=O)COCCOCCNC(=O)CC[C@H](NC(=O)CCCCCCCCCCCCCCCCCCC(=O)O)C(=O)O)NC(=O)[C@H](CCC(=O)O)NC(=O)[C@H](CC(=O)O)NC(=O)[C@H](CC(C)C)NC(=O)[C@](C)(CC(C)C)NC(=O)[C@@H](NC(=O)[C@H](CO)NC(=O)[C@H](Cc1ccc(O)cc1)NC(=O)[C@H](CC(=O)O)NC(=O)[C@H](CO)NC(=O)[C@@H](NC(=O)[C@H](Cc1ccccc1)NC(=O)[C@@H](NC(=O)CNC(=O)[C@H](CCC(=O)O)NC(=O)C(C)(C)NC(=O)[C@@H](N)Cc1ccc(O)cc1)[C@@H](C)O)[C@@H](C)O)[C@@H](C)CC)[C@@H](C)CC)C(=O)N[C@@H](CCC(=O)O)C(=O)NCC(=O)NCC(=O)N1CCC[C@H]1C(=O)N[C@@H](CO)C(=O)N[C@@H](CO)C(=O)NCC(=O)N[C@@H](C)C(=O)N1CCC[C@H]1C(=O)N1CCC[C@H]1C(=O)N1CCC[C@H]1C(=O)N[C@@H](CO)C(N)=O [Example 56] (H-Y[Aib]EGTFTSDYSI[αMeL]LDEK([AEEA-AEEA-γGlu-C20 diacid])AQHAFIEYLIEGGPSSGAPPPS-NH2)	0.136 nM	0.167 nM	> 1060 nM	0.148 nM	10.3 nM

Source: patent publication US12252524B2, “GIP/GLP1 co-agonist compounds” (Eli Lilly and Company, priority 2018, dated 2025)
